Laboratory results: US11535590B2, “Sulfonium salt photoinitiator, preparation method therefor, photocurable composition comprising sulfonium salt photoinitiator, and use thereof” (CHANGZHOU TRONLY NEW ELECTRONIC MATERIALS CO., LTD., priority 2017, dated 2022)
Read-outs that look alike come from different tables or passages of the source.

Assay: Evaluation of solubilities of photoinitiators in cationic active diluents
Type: physicochemical
Details: for Solubility in DOX: diluent DOX: 3,3′-[oxybismethylene]bis[3-ethyl] oxetane; for Solubility in DVE-3: diluent DVE-3: triethyleneglycol divinyl ether; for Solubility in Epoxy resin 6110: diluent Epoxy resin 6110: 3.4-epoxycyclohexylmethyl-3,4-epoxycyclohexyl carboxylate
[1] = diluent POX: 3-ethyl-3-(phenoxymethyl) oxetane

Solubility in DOX [%] | Solubility in DVE-3 [%] | Solubility in Epoxy resin 6110 [%] | Solubility in POX [1] [%] | Solubility in POX [%] | Molecule
>10 | >10 | >10 | >10 | – | COC(=O)C(=O)c1ccc(Sc2ccc([S+](c3ccc(Sc4ccc(C(=O)C(=O)OC)cc4)cc3)c3ccc(Sc4ccc(C(=O)C(=O)OC)cc4)cc3)cc2)cc1 [Compound 1]
>10 | >10 | >10 | >10 | – | CCOC(=O)C(=O)c1ccc(Oc2ccc([S+](c3ccccc3)c3ccccc3)cc2)cc1 [Compound 2]
>10 | >10 | >10 | >10 | – | CCOC(=O)C(=O)c1ccc(Oc2ccc([S+](c3ccc(C)cc3)c3ccc(C)cc3)cc2)cc1 [Compound 7]
<2 | <2 | <2 | – | <2 | [F][Sb-]([F])([F])([F])([F])[F].[F][Sb-]([F])([F])([F])([F])[F].c1ccc([S+](c2ccccc2)c2ccc(Sc3ccc([S+](c4ccccc4)c4ccccc4)cc3)cc2)cc1 [UVI6976, bis(4,4′-thioethertriphenylsulfonium) hexafluoroantimonate, reference compound]

Molecule | Solubility in DOX [%] | Solubility in DVE-3 [%] | Solubility in Epoxy resin 6110 [%] | Solubility in POX [1] [%] | Solubility in POX [%]
phenylthiophenyl diphenylsulfonium hexafluoroantimonate [UVI6992, reference compound] | <2 | <2 | <2 | <2 | –
